Results as given in US20250099433A1, “COMPOSITION AND METHOD FOR TREATMENT OF GRAM NEGATIVE BACTERIAL INFECTION” (The Research Foundation for the State University of New York, priority 2021, published 2025).
In brackets after ≈: the same amount, converted by molar mass. Several values for one entry are separate records, joined by “and”; a condition that tells them apart may be missing. Equal values may be shown once. Entries after “also recorded” stand apart in the source; their conditions may differ.

Legend:
[1] = test system: FabZ*, hyperactive FabZ strain (L85P); test: microbe, parasite or virus in culture; type: cell-based, Escherichia coli; details: hyperactive FabZ strain (L85P)
[2] = test system: wild-type E. coli (K12 MG1655); test: PAE in wild-type E. coli in the presence of sub-MIC azithromycin; type: cell-based, Escherichia coli; details: 16xMIC, 37° C.
Excerpt: FIG. 6. Post-antibiotic effect in the presence of sub-MIC azithromycin.
The PAE measurements were repeated for wild-type E. coli in the presence of sub-MIC levels of the protein synthesis inhibitor azithromycin.

[3] = test system: wild-type E. coli (K-12 MG1655); test: Post-antibiotic effect (PAE) in wild-type E. coli; type: cell-based, Escherichia coli
Excerpt: FIG. 4. Post-antibiotic effect of the ecLpxC inhibitors on wild-type and FabZ* E. coli. […] PAE data for wild-type E. coli are in panels (a) PT805, (c) PT810 and (e) CHIR-090, and for FabZ* E. coli in (b) PT805, (d) PT810 and (f) CHIR-090.
PAE data for wild-type E. coli are in panels (a) PT805, (c) PT810 and (e) CHIR-090, and for FabZ* E. coli in (b) PT805, (d) PT810 and (f) CHIR-090.

FabZ* E. coli = type: cell-based, Escherichia coli
Excerpt: FIG. 4. Post-antibiotic effect of the ecLpxC inhibitors on wild-type and FabZ* E. coli.
This included use of an E. coli strain (FabZ*) containing a hyperactive mutant of the fatty acid biosynthesis O-hydroxyacyl-ACP enzyme (FabZ), and determination of PAEs for wild-type E. coli in the presence of sub-MIC concentrations of macrolides.

[4] = test system: E. coli strain (K-12, MG1655); test: MIC by microbroth dilution, wild-type E. coli; type: cell-based, Escherichia coli; details: wild-type E. coli K-12 MG1655
[5] = test system: efflux-pump mutant strain (ΔMexABCDXY) (paEP); test: MIC by microbroth dilution, efflux-pump mutant P. aeruginosa; details: Pseudomonas aeruginosa, read-out: MIC (μM) (paEP)
Description: Bacterial Strains. […] The efflux-pump deficient P. aeruginosa strain (ΔMexABCDXY), N150, was derived from PAO1.
Minimum Inhibitory Concentration (MIC) Measurements.

paLpxC [6] = molecular target: T1, paLpxC (Pseudomonas aeruginosa (strain ATCC 15692 / DSM 22644 / CIP 104116 / JCM 14847 / LMG 12228 / 1C / PRS 101 / PAO1), UniProt P47205); test: biochemical; type: binding; details: for Ki: fluorescence competition; for tR (min) Fluorescence assay: tR = 1/koff; for koff: read-out: Koff (s^−1); for kon: read-out: Kon (μM^−1s^−1)
P. aeruginosa PAO1 [7] = test: Post-antibiotic effect (PAE) in P. aeruginosa PAO1; details: 37° C.; for PAE (h) 4x: PAO1, 4xMIC for 1 h; for PAE (h) 8x: PAO1, 8xMIC for 1 h; for PAE (h) 16x: PAO1, 16xMIC for 1 h
Description: Post-antibiotic effect of the paLpxC inhibitors on wild-type P. aeruginosa. […] The experimental data points are the mean values from triplicate, independent measurements, and the error bars represent the standard deviation from the mean.
After incubating the plates overnight at 37° C., CFUs were enumerated, and the PAE values were calculated using a standard method where the time for the bacteria to recover 1 log post drug washout compared to the control was determined (FIG. 17, Table 6).
Post-antibiotic Effect (PAE). PAEs were determined using P. aeruginosa PAO1. […] The compound was washed out by diluting the culture 1000-fold into fresh CAMH-II medium, and the regrowth of bacteria was monitored by taking 100 μL aliquots each hour and plating serial dilutions on Muller-Hinton agar plates.

paLpxC [8] = molecular target: T1, paLpxC; test: Spin column (Penefsky) residence time assay on paLpxC; type: binding; details: 37° C.; for tR (min) (Spin column assay): direct displacement; for k (min^−1), spin-column assay: first-order fit
Description: FIG. 14. Spin-column assay. A spin-column assay was used to quantify the residence time of inhibitors on paLpxC at 37° C. […] Samples were then subjected to size exclusion chromatography at different times using a Spin-Trap G-25 column (800×g for 2 min). […] Preincubated solutions of enzyme (10 μM) and inhibitor (10 or 20 μM) were diluted 200-fold into a solution of PT855 (1 μM) at 37° C. Aliquots of this solution were withdrawn at various times and subjected to centrifugal gel filtration chromatography using PD SpinTrap™ G-25 columns. The fluorescence of the eluate was quantified, and the data were fit to a single exponential equation to obtain koff (FIG. 14, Tables 4 and 5).
Inhibitor Residence Time Measurements using a Spin Column Assay. […] Subsequently, 10 μL of the incubation mixture was diluted into 2 mL of the same buffer containing 1 μM of PT855, and 100 μL of this mixture was then aliquoted at different time points and loaded onto a PD SpinTrap™ G-25 column (Cytiva) that had been equilibrated with buffer prior to sample loading. […] The fluorescence intensities corresponding to loading diluted EI without the fluorescent competitor and loading the competitor alone were measured separately to determine the dynamic range and endpoint of the assay. […] Rates were calculated by fitting the change in fluorescence intensity over time to a one-phase association equation in GraphPad Prism.

P. aeruginosa PAO1 [9] = test: Time-kill assays in P. aeruginosa PAO1; details: PAO1, 4x, 8x and 16xMIC, CAMH media, 37° C.
Description: Time-kill assays. […] The experimental data points are the mean values from triplicate, independent measurements, and the error bars represent the standard deviation from the mean.
Time-Kill Assays. […] Cultures were shaken at 37° C. for 6 h, and 100 μL aliquots were taken at each 1 h time interval and plated in serial dilutions in a Mueller-Hinton agar plate.

P. aeruginosa PAO1 [10] = test: MIC by microbroth dilution, P. aeruginosa PAO1; details: Pseudomonas aeruginosa, PAO1, read-out: MIC (μM) (PAO1)
[11] = 16xMIC for 1 h, 1:1000 dilution

T1 sequence (P47205 1-299): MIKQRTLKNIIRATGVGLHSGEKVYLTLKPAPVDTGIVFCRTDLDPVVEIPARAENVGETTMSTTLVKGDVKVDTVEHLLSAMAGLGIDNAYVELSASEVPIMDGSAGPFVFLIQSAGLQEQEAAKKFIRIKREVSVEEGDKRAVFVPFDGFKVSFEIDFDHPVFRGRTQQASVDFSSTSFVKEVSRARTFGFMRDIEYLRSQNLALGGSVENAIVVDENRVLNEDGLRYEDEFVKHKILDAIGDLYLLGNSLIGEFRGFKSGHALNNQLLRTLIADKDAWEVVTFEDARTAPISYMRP

| Compound | MIC [5] | Ki (paLpxC [6]; 37° C.) | tR (min) Fluorescence assay (paLpxC [6]; 37° C.) | koff (paLpxC [6]) | kon (paLpxC [6]) | PAE (h) 4x (P. aeruginosa PAO1 [7]) | PAE (h) 8x (P. aeruginosa PAO1 [7]) | PAE (h) 16x (P. aeruginosa PAO1 [7]) | tR (min) (Spin column assay) (paLpxC [8]) | k (min^−1), spin-column assay (paLpxC [8]) | reduction of the starting log CFU/mL of the bacterial culture (P. aeruginosa PAO1 [9]) | MIC (P. aeruginosa PAO1 [10]) | further results |
| --- | --- | --- | --- | --- | --- | --- | --- | --- | --- | --- | --- | --- | --- |
| Cn1nnnc1SCC1=C(C(=O)O)N2C(=O)[C@@H](NC(=O)[C@H](O)c3ccccc3)[C@H]2SC1 [Cefamandole] | – | – | – | – | – | – | – | – | – | – | – | – | MIC (μM) FabZ* [1]: 1.6 µM (≈ 0.74 µg/mL); PAE (h) (sub-MIC AZ) 16x(0.2) ([2]; then media with 0.2xMIC azithromycin): 0 h; PAE (h) (sub-MIC AZ) 16x(0.4) ([2]; then media with 0.4xMIC azithromycin): 0 h; PAE (h) 4x, Wild-type ([3]; 4xMIC for 1 h, 1:1000 dilution): 0 h; PAE (h) 16x, Wild-type [3, 11]: 0 h; PAE in wild-type E. coli ([3]; MIC multiple not stated or 4x and 16xMIC): failed to generate a PAE; also recorded: neither cefamandole nor trimethoprim showed a PAE; PAE (h) 4x, FabZ* (FabZ* E. coli; 4xMIC for 1 h, 1:1000 dilution): 0 h; PAE (h) 16x, FabZ* (FabZ* E. coli; [11]): 0 h; PAE in FabZ* E. coli (FabZ* E. coli; MIC multiple not stated or 1x-16xMIC): failed to generate a PAE; also recorded: neither cefamandole nor trimethoprim showed a PAE; MIC [4]: 6.25 µM (≈ 2.89 µg/mL) |
| COc1ccc(-c2ccc(CNC3(C(=O)NO)CCS(=O)(=O)CC3)cc2)c(F)c1 [PT920, 4-(((2′-fluoro-4′-methoxy-[1,1′-biphenyl]-4-yl)methyl)amino)-N-hydroxytetrahydro-2H-thiopyran-4-carboxamide 1,1-dioxide] | 0.03 µM (≈ 0.0127 µg/mL) | 37.9 ± 24 pM | 32.0 ± 4.8 min | 0.00053 ± 7e-05 s⁻¹ | 16.6 ± 8.5 µM⁻¹ s⁻¹ | 1.0 ± 0.1 h | 1.3 ± 0.2 h | 1.7 ± 0.2 h | 79 ± 24 min and 79.0 ± 24.0 min | 0.013 ± 0.004 min⁻¹ | more than 3 logs | 0.4 µM (≈ 0.169 µg/mL) | – |
| CC(CCn1ccc(-c2ccc(-c3cn(Cc4ccc(F)cc4)nn3)cc2)cc1=O)(C(=O)NO)S(C)(=O)=O (racemic) [PT909, 4-(4-(4-(1-(4-fluorobenzyl)-1H-1,2,3-triazol-4-yl)phenyl)-2-oxopyridin-1(2H)-yl)-N-hydroxy-2-methyl-2-(methylsulfonyl)butanamide] | 0.05 µM (≈ 0.027 µg/mL) | 8 ± 2.3 pM | 68.2 ± 9.6 min | 0.00025 ± 3e-05 s⁻¹ | 33.8 ± 13.6 µM⁻¹ s⁻¹ | 1.7 ± 0.1 h | 2.5 ± 0.1 h | 3.5 ± 0.2 h | 106 ± 25 min and 106.2 ± 25.0 min | 0.009 ± 0.002 min⁻¹ | more than 3 logs | 1.56 µM (≈ 0.842 µg/mL) | – |
| CC(CCn1ccc(-c2ccc(-c3cn(CC4CC4)nn3)cc2)cc1=O)(C(=O)NO)S(C)(=O)=O (racemic) [PT908, 4-(4-(4-(1-(cyclopropylmethyl)-1H-1,2,3-triazol-4-yl)phenyl)-2-oxopyridin-1(2H)-yl)-N-hydroxy-2-methyl-2-(methylsulfonyl)butanamide] | 0.4 µM (≈ 0.194 µg/mL) | 10.2 ± 4.3 pM | 66.9 ± 8.6 min and 67.0 ± 8.6 min | 0.00025 ± 3e-05 s⁻¹ | 26.4 ± 6.3 µM⁻¹ s⁻¹ | 1.6 ± 0.1 h | 2.2 ± 0.1 h | 3.1 ± 0.1 h | 190.6 ± 92.0 min | – | more than 3 logs | 3.12 µM (≈ 1.52 µg/mL) | – |
| CC(CCn1ccc(-c2ccc(-c3cn(CC45CC(C4)C5)nn3)cc2)cc1=O)(C(=O)NO)S(C)(=O)=O (racemic) [PT913, 4-(4-(4-(1-(bicyclo[1.1.1]pentan-1-ylmethyl)-1H-1,2,3-triazol-4-yl)phenyl)-2-oxopyridin-1(2H)-yl)-N-hydroxy-2-methyl-2-(methylsulfonyl)butanamide] | 0.78 µM (≈ 0.399 µg/mL) | 2.1 ± 1.6 pM | 123.8 ± 37.2 min and 124.0 ± 37.2 min | 0.00015 ± 5e-05 s⁻¹ | 85.2 ± 32.5 µM⁻¹ s⁻¹ | 4 h and 4.0 ± 0.2 h | – | – | – | – | – | 12.5 µM (≈ 6.4 µg/mL) | residence time fold longer than 1 (paLpxC [6]; fluorescence assay, 37° C.): ~3 fold |
